Earlier results, collected in patent US20230116647A1 (Bausch Health Ireland Limited, priority 2020, published 2023).

Columns and labels:
Hepatic Encephalopathy = details: mouse, in vivo; cited from earlier work
[1] = system: proteoglycan (PG)-induced ankylosing spondylitis; details: administered for 4 consecutive weeks; cited from earlier work
[2] = system: Minimal Hepatic Encephalopathy; details: cited from earlier work
[3] = system: species of Staphylococcus, Streptococcus, Enterococcus, and Enterobacteriaceae; details: cited from earlier work
visceral hyperalgesia = details: rat, in vivo; cited from earlier work
NASH = details: after 6 months of therapy; all P<0.05; cited from earlier work

| Compound | microbiota function (endotoxin, deconjugation and formation of secondary bile acids) (Hepatic Encephalopathy) | systemic inflammation (serum IL-1β, IL-6), intestinal barrier, microbiota composition and function (Hepatic Encephalopathy) | inflammatory factors, such as TNF-α, IL-6, IL-17A, and IL-23 [1] | severity of ankylosing spondylitis [1] | responders in whom all alterations of the immune system were normalized ([2]; human, in vivo) | effect on alterations of the immune system in non-responders ([2]; non-responders) | in vitro activity against bacteria [3] | mucosal inflammation, measured by levels of IL-17, IL-6 and TNF-α (visceral hyperalgesia) | overall quantity of bacteria in the ileum (visceral hyperalgesia) | homeostatic model assessment, ALT, AST, γ-glutamyl transferase, endotoxin, toll-like receptor-4, IL-6, TNF-α, CK-18, NAFLD-liver fat score (NASH) | elevation in IL-17, IL-6, or TNF-α (visceral hyperalgesia) | visceral pain (visceral hyperalgesia) |
| --- | --- | --- | --- | --- | --- | --- | --- | --- | --- | --- | --- | --- |
| CO[C@H]1/C=C/O[C@@]2(C)Oc3c(C)c(O)c4c(O)c(c5c(nc6cc(C)ccn65)c4c3C2=O)NC(=O)/C(C)=C\C=C\[C@H](C)[C@H](O)[C@@H](C)[C@@H](O)[C@@H](C)[C@H](OC(C)=O)[C@@H]1C [rifaximin, Rifaximin] | favorably impacted | improved | down-regulation | significantly reduced | 59% | normalizes only IL-6, CCL20, and differentiation of T lymphocytes to Th22 | active | decreased | decreased | significant reduction |  |  |
| neomycin |  |  |  |  |  |  |  |  |  |  | did not prevent | did not decrease |
